{"source": "patent US8304440B2", "about": "“Combination of a bis-thiazolium salt or a precursor thereof and artemisinin or a derivative thereof for treating acute malaria” (Sanofi, priority 2008, dated 2012)", "system": "Plasmodium vinckei petteri (strain 279 BY)", "test": "In vivo measurement of the antimalarial activity in mice infected with Plasmodium vinckei petteri (4-day ip treatment)", "design": "species or system Plasmodium vinckei petteri in female Swiss mice", "source_text": "• ED50=dose in mg/kg/day which brings about a 50% decrease in parasitaemia, observed in the infected mice, • ED90=dose in mg/kg/day which brings about a 90% decrease in parasitaemia, observed in the infected mice, • ip=intraperitoneal administration, • iv=intravenous administration, • ir=intrarectal administration.\nOn day 0 (D0), female “Swiss” mice (OF1, 22-26 g) (Charles River Laboratories France, 59 rue de la Paix, 76410 Saint-Aubin-les-Elbeuf) are inoculated, by iv injection in the caudal vein, with 10^8 parasitized erythrocytes suspended in 200 μl of NaCl (0.9%). The parasites used are of Plasmodium vinckei petteri type (strain 279 BY, supplied by Dr. I Landau, Paris, France).\nThe injection of 10^8 parasitized erythrocytes results, at day 1 (D1), in a parasitemia level of between 5% and 10% (7.2%±0.2%). The Plasmodium vinckei petteri strain is maintained by weekly infection in mice with 10^7 to 10^8 parasitized erythrocytes suspended in a saline phosphate buffer (0.9%) (infection by intraperitoneal administration).\nThe products are dissolved in a 0.3M phosphate buffer (pH=8.1). The final concentration of the T3 solution is between 40 and 200 mg/l depending on the dose. The final concentration of the artesunate solution is between 100 and 500 mg/l depending on the dose. The products are administered ip. The administration volume is of the order of 100 μl, but depends on the weight of the mouse.\nThe mice are treated once a day for 4 days, on days D1, D2, D3 and D4 (Peters, W., J. H. Portus, and B. L. Robinson. 1975. The chemotherapy of rodent malaria. XXII. The value of drug-resistant strains of P. berghei in screening for blood schizonticidal activity. Ann. Trop. Med. Parasitol. 69:155-171; and: Ancelin M L, Calas M., Bonhoure A., Herbute S, and Vial H., In vivo antimalarial activity of mono and bis quaternary ammonium salts interfering with Plasmodium phospholipid metabolism. Antimicrob. Agents Chemother., 2003, 47, 2598-2605). Four mice are used per dose.\nThe animal is given, by ip administration, according to the case, T3, artesunate or the mixture of the two active ingredients solubilized.\nAt the 5th day, a few drops of blood are taken from the tail of the mouse in order to determine the parasitemia by FACS (fluorescence-activated cell sorter) and to perform a blood smear. The parasitemia is first determined by FACS on 20 000 cells. The red blood cells taken for the FACS are fixed with glutaraldehyde and then labeled with a fluorochrome (YOYO1®) which labels DNA and therefore only the parasitized cells (Barkan, D., Ginsburg, H., and Golenser, J. 2000. Optimisation of flow cytometric measurement of parasitaemia in plasmodium-infected mice. Int. J. Parasitol. 30: 649-653). The parasitemias below 15% are subsequently recounted on smears. The smears are fixed with methanol and then stained with Giemsa stain. The number of parasitized blood cells is counted under a microscope. The parasitemia is expressed as percentage of infected erythrocytes present in the specimen, on a sample of 2000 cells. The ED50 and ED90 values are determined at D5. The parasitemia is determined from the 1st to the 10th day of treatment, and then at the 15th, 22nd and 47th days.\nThe curative dose is the dose of product which ensures the survival of the entire treated batch of animals after one month.\n0% inhibition corresponds to the mean of the parasitemias observed in the nontreated, infected mice. 100% inhibition corresponds to a very weak or null parasitemia, below 0.01%. The ED50 values are determined by linear interpolation of the dose-response curve represented in logarithm of concentrations."}
{"smiles": "C[C@H]1[C@H](OC(=O)CCC(=O)O)O[C@@H]2O[C@@]3(C)CC[C@H]4[C@H](C)CC[C@@H]1[C@@]24OO3", "note": "[artesunate, reference compound]", "values": [{"measurement": "parasitaemia D5", "setting": "Artesunate 2.5 mg/kg/d alone, ip D1-D4, D5", "value": 53.20, "unit": "%"}, {"measurement": "parasitaemia D1", "setting": "Artesunate 2.5 mg/kg/d alone, ip, D1 (first treatment day)", "value": 7.00, "unit": "%"}, {"measurement": "parasitaemia D2", "setting": "Artesunate 2.5 mg/kg/d alone, ip, D2 (24 h after first administration)", "value": 32.90, "unit": "%"}, {"measurement": "activity on the parasitemia at 4 days", "setting": "artesunate 0.5 mg/kg/d", "value": "completely inactive"}, {"measurement": "complete recovery after one month", "setting": "artesunate alone 2.5 mg/kg/day", "value": "does not"}, {"measurement": "effect on parasitemia on the first day and following days", "setting": "artesunate alone, at the doses tested, ip (FIG. 1)", "value": "does not reduce the parasitemia"}, {"measurement": "ED50", "setting": "dose giving 50% decrease in parasitaemia, ip once a day D1-D4, determined at D5, compound alone", "value": ">2.5", "unit": "mg/kg/day"}]}
